Measured values from patent US4022606A, “Antimicrobial use of ω-aminocarboxylic acid amides” (Henkel & Cie G.m.b.H., priority 1973, dated 1977).
≈ marks a conversion by molar mass, not a printed value.

Tested on: Staphylococcus aureus
Assay: Minimum inhibitory concentration, dilution test, germ 1
Format: cell-based
Settings: 72 h, 5 × 10^7 organisms/ml, 3 days at 37° C.
Method: (§1) In order to measure the antimicrobial efficacy of the above-named ω-aminocarboxylic acid amides, their inhibitory effect upon the subsequently listed bacteria and fungi, as well as upon the germs in contaminated process water was determined.
1) Staphylococcus aureus
(§2) The minimum inhibitory concentrations of the products to be tested were determined by means of the dilution test according to the standards for the examination of chemical disinfectants which had been published in 1959 by the Deutsche Gesellschaft fur Hygiene und Mikrobiologie (German Association for Hygiene and Microbiology). The tests were carried out in test tubes which were filled with Standard-I-Broth (Merck) or with beer wort (8° Be) and diluted 1:5 with tap water. After the addition of the active substances, the volume of the nutrient solution in the test tubes was adjusted to 10 ml. Next, the test tubes were inoculated with 0.1 ml test organism suspension. In the case of bacteria, the inoculated test tubes were incubated in the incubator for 3 days at 37° C. and in the case of fungi, they incubated for 6 days at 30° C. Subsequently, the concentration of the compound added to the nutrient medium which was just able to inhibit completely the growth of the germs was determined. The value thus determined was designated as the minimum inhibitory concentration (m.i.c.). The following concentration intervals were used for the tests: 1,000 ppm, 750 ppm, 500 ppm, 250 ppm, 100 ppm, 50 ppm, 25 ppm, 10 ppm, 7.5 ppm, 5 ppm, 2.5 ppm, and 1 ppm.
(§3) The inhibitory concentrations of the individual products for the above-quoted germs which were determined in this dilution test are listed in the following Table III.

**Q.** With `CCCCCCCCCCCCNC(=O)CCCCCN` [Product D, 6-aminocapronic acid-dodecylamide] as the molecule, how does the MIC read?
**A.** 5 µg/mL (≈ 16.7 µM)

**Q.** How did the MIC turn out when `CCCCCCCCCCCCNC(=O)CCCCCNC(=O)CCCCCN` [Product E] was run?
**A.** 50 µg/mL (≈ 121 µM)

**Q.** Which MIC does the source give for `CCCCCCCCCCCCCCNC(=O)CCCCCN` [Product F] here?
**A.** 5 µg/mL (≈ 15.3 µM)

Tested on: Escherichia coli
Assay: Minimum inhibitory concentration, dilution test, germ 2
Format: cell-based
Settings: 72 h, 4 × 10^7 organisms/ml, 3 days at 37° C.
Method: as §1
2) Escherichia coli 4 × 10^7 organisms/ml
as §2, §3

**Q.** Which MIC does the source give for `CCCCCCCCCCCCNC(=O)CCCCCN` [Product D, 6-aminocapronic acid-dodecylamide] here?
**A.** 5 µg/mL (≈ 16.7 µM)

**Q.** With `CCCCCCCCCCCCNC(=O)CCCCCNC(=O)CCCCCN` [Product E] as the molecule, how does the MIC read?
**A.** 50 µg/mL (≈ 121 µM)

**Q.** For `CCCCCCCCCCCCCCNC(=O)CCCCCN` [Product F], which MIC is on record?
**A.** 5 µg/mL (≈ 15.3 µM)

Tested on: Pseudomonas aeruginosa
Assay: Minimum inhibitory concentration, dilution test, germ 3
Format: cell-based
Settings: 72 h, 4 × 10^7 organism/ml, 3 days at 37° C.
Method: as §1
3) Pseudomonas aeruginosa
as §2, §3

**Q.** How did the MIC turn out when `CCCCCCCCCCCCNC(=O)CCCCCN` [Product D, 6-aminocapronic acid-dodecylamide] was run?
**A.** 100 µg/mL (≈ 335 µM)

**Q.** `CCCCCCCCCCCCNC(=O)CCCCCNC(=O)CCCCCN` [Product E] was tested. Which MIC did it give?
**A.** 250 µg/mL (≈ 607 µM)

**Q.** For `CCCCCCCCCCCCCCNC(=O)CCCCCN` [Product F], which MIC is on record?
**A.** 250 µg/mL (≈ 766 µM)

Tested on: Candida albicans
Assay: Minimum inhibitory concentration, dilution test, germ 4
Format: cell-based
Settings: 144 h, 2 × 10^6 organisms/ml, 6 days at 30° C.
Method: as §1
4) Candida albicans 2 × 10^6 organisms/ml
as §2, §3

**Q.** Which MIC does the source give for `CCCCCCCCCCCCNC(=O)CCCCCN` [Product D, 6-aminocapronic acid-dodecylamide] here?
**A.** 50 µg/mL (≈ 167 µM)

**Q.** Which MIC does the source give for `CCCCCCCCCCCCNC(=O)CCCCCNC(=O)CCCCCN` [Product E] here?
**A.** 250 µg/mL (≈ 607 µM)

**Q.** Which MIC does the source give for `CCCCCCCCCCCCCCNC(=O)CCCCCN` [Product F] here?
**A.** 50 µg/mL (≈ 153 µM)

Tested on: Aspergillus niger
Assay: Minimum inhibitory concentration, dilution test, germ 5
Format: cell-based
Settings: 144 h, 9 × 10^5 organisms/ml, 6 days at 30° C.
Method: as §1
5) Aspergillus niger 9 × 10^5 organisms/ml
as §2, §3

**Q.** `CCCCCCCCCCCCNC(=O)CCCCCN` [Product D, 6-aminocapronic acid-dodecylamide] was tested. Which MIC did it give?
**A.** 50 µg/mL (≈ 167 µM)

**Q.** Which MIC does the source give for `CCCCCCCCCCCCNC(=O)CCCCCNC(=O)CCCCCN` [Product E] here?
**A.** 250 µg/mL (≈ 607 µM)

**Q.** How did the MIC turn out when `CCCCCCCCCCCCCCNC(=O)CCCCCN` [Product F] was run?
**A.** 100 µg/mL (≈ 306 µM)

Tested on: Mixture of contaminated water from 3 cooling towers
Assay: Minimum inhibitory concentration, dilution test, germ 6
Format: cell-based
Settings: not given
Method: as §1
6) Mixture of contaminated water
as §2, §3

**Q.** For `CCCCCCCCCCCCNC(=O)CCCCCN` [Product D, 6-aminocapronic acid-dodecylamide], which MIC is on record?
**A.** 5 µg/mL (≈ 16.7 µM)

**Q.** With `CCCCCCCCCCCCNC(=O)CCCCCNC(=O)CCCCCN` [Product E] as the molecule, how does the MIC read?
**A.** 25 µg/mL (≈ 60.7 µM)

**Q.** How did the MIC turn out when `CCCCCCCCCCCCCCNC(=O)CCCCCN` [Product F] was run?
**A.** 7.5 µg/mL (≈ 23 µM)

Tested on: Mixture of contaminated water from 3 scrubbers of air conditioning installations
Assay: Minimum inhibitory concentration, dilution test, germ 7
Format: cell-based
Settings: not given
Method: as §1
7) Mixture of contaminated water
from 3 scrubbers of air con-
ditioning installations
as §2, §3

**Q.** How did the MIC turn out when `CCCCCCCCCCCCNC(=O)CCCCCN` [Product D, 6-aminocapronic acid-dodecylamide] was run?
**A.** 5 µg/mL (≈ 16.7 µM)

**Q.** For `CCCCCCCCCCCCNC(=O)CCCCCNC(=O)CCCCCN` [Product E], which MIC is on record?
**A.** 25 µg/mL (≈ 60.7 µM)

**Q.** For `CCCCCCCCCCCCCCNC(=O)CCCCCN` [Product F], which MIC is on record?
**A.** 7.5 µg/mL (≈ 23 µM)
